Test results published in ChEMBL document CHEMBL1158539, “Synthesis and biological activity of 2H-quinolizin-2-one based p38alpha MAP kinase inhibitors” (Bioorg Med Chem Lett, 2010).
The source made the active and inactive calls. The rule behind the calls is not given here.

Assays:
[1] = Lipophilicity, log D of the compound; format: physicochemical; settings: octanol/water
[2] = Half life in dog; format: ADME, organism-based, Canis lupus familiaris; settings: in vivo
[3] = Half life in monkey; format: ADME, organism-based, Macaca mulatta; settings: rhesus monkey, in vivo
[4] = Clearance in rat at 1 mg/kg, iv and 2 mg/kg, po; format: ADME, organism-based; settings: in vivo
[5] = Clearance in dog at 0.25 mg/kg, iv and 2 mg/kg, po; format: ADME, organism-based, Canis lupus familiaris; settings: in vivo
[6] = Clearance in monkey at 0.25 mg/kg, iv and 2 mg/kg, po; format: ADME, organism-based, Macaca mulatta; settings: rhesus monkey, in vivo
[7] = AUC in rat at 1 mg/kg, iv and 2 mg/kg, po; format: ADME, organism-based; settings: plasma
[8] = AUC in dog at 0.25 mg/kg, iv and 2 mg/kg, po; format: ADME, organism-based, Canis lupus familiaris; settings: plasma
[9] = AUC in monkey at 0.25 mg/kg, iv and 2 mg/kg, po; format: ADME, organism-based, Macaca mulatta; settings: rhesus monkey, plasma
[10] = Half life in rat at 1 mg/kg, iv and 2 mg/kg, po; format: ADME, organism-based; settings: in vivo
[11] = Half life in dog at 0.25 mg/kg, iv and 2 mg/kg, po; format: ADME, organism-based, Canis lupus familiaris; settings: in vivo
[12] = Half life in monkey at 0.25 mg/kg, iv and 2 mg/kg, po; format: ADME, organism-based, Macaca mulatta; settings: rhesus monkey, in vivo
[13] = Oral bioavailability in rat at 2 mg/kg; format: ADME, organism-based; settings: in vivo
[14] = Oral bioavailability in dog at 2 mg/kg; format: ADME, organism-based, Canis lupus familiaris; settings: in vivo
[15] = Oral bioavailability in monkey at 2 mg/kg; format: ADME, organism-based, Macaca mulatta; settings: rhesus monkey, in vivo
[16] = tested on: Rattus norvegicus; test: Antiarthritic activity in rat assessed as reduction of LPS-induced TNFalpha level at 1 mg/kg after 4 hrs; format: functional; design: scale not given: the % may be the effect or the level left
[17] = tested on: Rattus norvegicus; test: Antiarthritic activity in rat assessed as reduction of LPS-induced TNFalpha level at 3 mg/kg after 4 hrs; format: functional; design: scale not given: the % may be the effect or the level left
[18] = tested on: Rattus norvegicus; test: Antiarthritic activity in rat assessed as reduction of LPS-induced TNFalpha level at 0.03 mg/kg after 4 hrs; format: functional; design: scale not given: the % may be the effect or the level left
[19] = tested on: Rattus norvegicus; test: Antiarthritic activity in rat assessed as reduction of LPS-induced TNFalpha level at 30 mg/kg after 24 hrs; format: functional, organism-based; design: dose 30 mg/kg
[20] = tested on: Rattus norvegicus; test: Antiarthritic activity in rat assessed as reduction of LPS-induced TNFalpha level at 10 mg/kg after 24 hrs; format: functional, organism-based; design: dose 10 mg/kg
[21] = tested on: Rattus norvegicus; test: Antiarthritic activity in rat assessed as reduction of LPS-induced TNFalpha level at 1 mg/kg after 24 hrs; format: functional, organism-based; design: dose 1 mg/kg
[22] = tested on: Rattus norvegicus; test: Antiarthritic activity in rat assessed as reduction of LPS-induced TNFalpha level at 3 mg/kg after 24 hrs; format: functional, organism-based; design: dose 3 mg/kg
[23] = target: T1, Nuclear receptor subfamily 1 group I member 2 (Homo sapiens, UniProt O75469); test: Activation of PXR
T1 sequence (O75469 whole entry): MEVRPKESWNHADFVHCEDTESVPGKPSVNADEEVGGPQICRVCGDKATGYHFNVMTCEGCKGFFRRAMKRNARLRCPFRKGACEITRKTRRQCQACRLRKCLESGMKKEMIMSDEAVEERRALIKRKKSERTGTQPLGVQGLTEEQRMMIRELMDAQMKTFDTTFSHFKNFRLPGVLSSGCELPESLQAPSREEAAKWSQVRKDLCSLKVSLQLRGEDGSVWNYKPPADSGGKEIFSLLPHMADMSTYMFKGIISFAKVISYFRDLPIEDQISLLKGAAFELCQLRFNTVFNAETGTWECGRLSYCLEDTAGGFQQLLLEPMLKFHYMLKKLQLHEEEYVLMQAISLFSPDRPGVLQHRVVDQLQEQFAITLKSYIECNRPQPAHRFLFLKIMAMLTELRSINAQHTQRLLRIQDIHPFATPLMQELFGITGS

[24] = target: Mitogen-activated protein kinase 14 (Mus musculus, UniProt P47811)
Sequence of Mitogen-activated protein kinase 14 (P47811 whole entry): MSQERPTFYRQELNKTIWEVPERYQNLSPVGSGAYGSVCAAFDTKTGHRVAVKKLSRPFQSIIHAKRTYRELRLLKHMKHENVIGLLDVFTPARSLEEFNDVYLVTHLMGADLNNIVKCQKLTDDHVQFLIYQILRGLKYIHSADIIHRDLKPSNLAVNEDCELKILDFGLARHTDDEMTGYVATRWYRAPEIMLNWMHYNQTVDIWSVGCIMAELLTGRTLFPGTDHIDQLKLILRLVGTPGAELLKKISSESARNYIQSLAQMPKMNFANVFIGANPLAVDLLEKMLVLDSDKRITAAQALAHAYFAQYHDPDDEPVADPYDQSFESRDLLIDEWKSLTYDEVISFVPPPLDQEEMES
Description: Inhibition of mouse p38alpha after 3 hrs by SPA method

[25] = tested on: Blood
Description: (§1) Inhibition of LPS-induced TNFalpha production in human whole blood

[26] = tested on: THP-1; test: cells; settings: Homo sapiens, THP-1, 4 h
Description: Inhibition of LPS-induced TNFalpha production in human THP1 cells after 4 hrs by ELISA

[27] = tested on: Blood; test: tissue or blood; settings: Homo sapiens
Description: as §1

[28] = Displacement of labeled diltiazem from calcium channel in guinea-pig hind limb skeletal muscle homogenates
[29] = target: Voltage-gated inwardly rectifying potassium channel KCNH2 (Homo sapiens, UniProt Q12809)
Sequence of Voltage-gated inwardly rectifying potassium channel KCNH2 (Q12809 whole entry): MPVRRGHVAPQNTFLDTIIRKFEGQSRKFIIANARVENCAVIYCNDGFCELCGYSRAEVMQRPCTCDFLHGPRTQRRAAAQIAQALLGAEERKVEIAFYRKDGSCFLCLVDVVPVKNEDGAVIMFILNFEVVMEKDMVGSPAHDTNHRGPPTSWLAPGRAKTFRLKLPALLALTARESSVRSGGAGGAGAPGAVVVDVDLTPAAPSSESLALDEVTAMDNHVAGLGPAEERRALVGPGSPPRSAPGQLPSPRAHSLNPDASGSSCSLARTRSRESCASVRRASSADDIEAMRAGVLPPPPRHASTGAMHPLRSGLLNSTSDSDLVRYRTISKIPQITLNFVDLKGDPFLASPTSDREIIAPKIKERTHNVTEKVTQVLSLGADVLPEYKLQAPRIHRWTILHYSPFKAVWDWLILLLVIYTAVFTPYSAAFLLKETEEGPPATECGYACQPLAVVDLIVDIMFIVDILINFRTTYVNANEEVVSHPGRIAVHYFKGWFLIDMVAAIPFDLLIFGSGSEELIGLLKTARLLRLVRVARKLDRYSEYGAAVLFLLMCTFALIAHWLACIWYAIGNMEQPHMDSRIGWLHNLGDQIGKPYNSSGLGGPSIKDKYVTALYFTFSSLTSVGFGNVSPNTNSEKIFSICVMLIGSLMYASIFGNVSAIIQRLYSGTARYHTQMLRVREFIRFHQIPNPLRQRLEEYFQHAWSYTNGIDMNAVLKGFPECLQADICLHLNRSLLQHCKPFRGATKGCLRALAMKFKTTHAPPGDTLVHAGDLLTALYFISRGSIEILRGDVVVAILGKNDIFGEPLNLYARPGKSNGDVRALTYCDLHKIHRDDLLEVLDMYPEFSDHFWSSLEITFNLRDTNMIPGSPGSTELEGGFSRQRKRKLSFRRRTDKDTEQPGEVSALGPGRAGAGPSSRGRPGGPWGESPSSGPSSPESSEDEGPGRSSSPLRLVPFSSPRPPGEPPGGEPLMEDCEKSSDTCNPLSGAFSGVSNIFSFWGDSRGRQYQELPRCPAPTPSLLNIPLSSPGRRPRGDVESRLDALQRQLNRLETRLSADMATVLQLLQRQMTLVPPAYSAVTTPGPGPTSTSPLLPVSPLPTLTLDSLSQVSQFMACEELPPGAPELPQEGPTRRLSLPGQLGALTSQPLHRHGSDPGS
Description: Displacement of labeled MK-499 from human ERG in HEK293 cells

In the case of `O=c1ccn2c(-c3ccc(F)cc3F)cccc2c1-c1c(F)cccc1F`, the logD [1] is reported as 2.5, the half-life [2] is reported as 1200 min and the half-life [3] is reported as greater than 4.17 days.

`Cc1nnc(-c2ccc(F)c(-c3c(=O)ccn4c(-c5ccc(F)cc5F)cccc34)c2)o1` gave a clearance [4] of 2.4 mL/min/kg, a clearance [5] of 0.88 mL/min/kg and a clearance [6] of 0.9 mL/min/kg. For the same compound, the AUC [7] was 21.7 µM·h, the AUC [8] was 58.6 µM·h and the AUC [9] was 23.9 µM·h. For the same compound, the half-life [10] was 84 min, the half-life [11] was 720 min and the half-life [12] was 570 min. For the same compound, the bioavailability [13] was 68%, the bioavailability [14] was 66% and the bioavailability [15] was 55%. For the same compound, the Activity [16] was greater than 90%, the Activity [17] was greater than 90% and the Activity [18] was 50%. The Activity [19] was “Active”, the Activity [20] was “Active” and the Activity [21] was “Active”. The Activity [22] was “Active”.

For `O=C1NCc2c(-c3ccc(F)cc3F)cc(N3CCNCC3)cc2N1c1c(Cl)cccc1Cl`, the logD [1] was 4.2.

In the case of `COC(=O)c1cc(F)c(-c2c(=O)ccn3c(-c4ccc(F)cc4F)cccc23)c(F)c1`, the EC50 [23] is reported as greater than 30 µM, the IC50 [24] is reported as 1.5 nM and the IC50 [25] is reported as “Not Active”. For the same compound, the IC50 [26] was 6490 nM.

Compound `NC(=O)c1cc(F)c(-c2c(=O)ccn3c(-c4ccc(F)cc4F)cccc23)c(F)c1` has an EC50 [23] greater than 30 µM, an IC50 [24] of 20 nM and an IC50 [26] of 180 nM. For the same compound, the IC50 [27] was 980 nM.

With `Cc1noc(-c2cc(F)c(-c3c(=O)ccn4c(-c5ccc(F)cc5F)cccc34)c(F)c2)n1` the EC50 [23] was greater than 30 µM, the IC50 [24] was 8.8 nM and the IC50 [26] was 430 nM. For the same compound, the IC50 [27] was 690 nM.

In the case of `Nc1nnc(-c2cc(F)c(-c3c(=O)ccn4c(-c5ccc(F)cc5F)cccc34)c(F)c2)o1`, the EC50 [23] is reported as greater than 30 µM, the IC50 [24] is reported as 6.8 nM and the IC50 [26] is reported as 270 nM. The IC50 [27] was 1580 nM.

For `O=c1ccn2c(-c3ccc(F)cc3F)cccc2c1-c1cc(-c2nnco2)ccc1F`, the IC50 [28] was greater than 30 µM, the clearance [4] was 3.1 mL/min/kg and the clearance [5] was 0.49 mL/min/kg. The clearance [6] was 3.6 mL/min/kg, the AUC [7] was 25.6 µM·h and the AUC [8] was 49.3 µM·h. The AUC [9] was 5.1 µM·h, the half-life [10] was 108 min and the half-life [11] was 1820 min. For the same compound, the half-life [12] was 354 min, the bioavailability [13] was 100% and the bioavailability [14] was 45%. For the same compound, the bioavailability [15] was 47%, the IC50 [24] was 13 nM and the Ki [29] was greater than 20 µM. The IC50 [26] was 25.4 nM and the IC50 [27] was 45.4 nM.

`O=c1ccn2c(-c3ccc(F)cc3F)cccc2c1-c1c(F)cc(-c2nnco2)cc1F` showed an EC50 [23] greater than 30 µM, an IC50 [24] of 5.3 nM and an IC50 [26] of 265 nM. For the same compound, the IC50 [27] was 775 nM.

Compound `Nc1cc2c(ccc(=O)n2-c2c(F)cccc2F)c(-c2ccc(F)cc2F)n1` has a logD [1] of 2.7, an IC50 [28] of 4.6 µM and an IC50 [24] of 0.6 nM. The Ki [29] was 5.1 µM.

For `N#Cc1cc(F)c(-c2c(=O)ccn3c(-c4ccc(F)cc4F)cccc23)c(F)c1`, the EC50 [23] was greater than 30 µM, the IC50 [24] was 1.5 nM and the IC50 [25] was “Not Active”. The IC50 [26] was 6490 nM.
